Tests used:
[1] = system: PD marker candidate genes in HeLa-luc cancer graft; assay: Expression change of PD marker candidate genes in planted cancer, continuous administration to rat (Example 3); assay type: in vivo, F344/N Jcl-rnu female nude rat; conditions: nude rat with HeLa-luc graft, intravenous drip infusion for 48 hours
Procedure: (§1) First, a cervical cancer strain HeLa-luc cells were subcutaneously transplanted to the back of an F344/N Jcl-rnu female nude rat. After 1 week, a […] cancer nude rat was subjected to femoral vein cannulation operation; and using a syringe pump, an Aurora A inhibitor 6-((4-(2-fluoro-3-(trifluoromethyl)benzoyl)piperazin-1-yl)methyl)-N-1H-pyrazol-3-ylpyrazin-2-amine was administered by intravenous drip infusion for 48 hours. After the administration, the collected cancer graft and the skin specimen were frozen and stored in liquid nitrogen.
Next, the total RNA was isolated from the collected cancer graft and formed into cDNA, which was checked for the expression change of the PD marker candidate genes. In addition to 5 genes identified in culture cells, Aurora A (AurA) and Aurora B (AurB) were also investigated as candidate genes. The primer probe sets for Aurora A and B are as follows. For every primer and probe, a human gene was used as the template.

[2] = system: Aurora B (Thr232) phosphorylation; assay: Western blotting of total Aurora B and phospho-Aurora B (Thr232) in synchronized HeLa S3 cells with Aurora inhibitors (Example 7); assay type: cell-based, human; conditions: 300 nM added 4 hours after release, sampling 0 to 24 hours, FIG. 24
Procedure: First, HeLa S3 cells were synchronized at the GI/S boundary by the above-mentioned double-thymidine block, and after 4 hours from the start of release, a control (DMSO, final 0.5%), an Aurora A-selective inhibitor 6-((4-(2,3-difluorobenzoyl)piperazin-1-yl)methyl)-N-thiazol-2-ylpyridin-2-amine (in FIG. 24, this is shown as “Aurora A Inhibitor 1”), an Aurora B inhibitor ZM477439 (J. Cell. Biol., Vol. 161, p. 267, 2003) or a pan-Aurora inhibitor VX-680 was added in an amount of 300 nM, followed by sampling at regular intervals for 0 to 24 hours. Next, the samples were analyzed for total Aurora B and phospho-Aurora B (Thr232) expression by western blotting.

[3] = system: histone H3 (Ser28) phosphorylation; assay: Western blotting of histone H3 Ser28 and Ser10 phosphorylation in asynchronous HeLa S3 cells (Example 8); assay type: cell-based, human; conditions: concentration series, compared with phospho-Aurora B (Thr232), FIG. 26
[4] = system: PD marker candidate genes (BIRC5, KNTC2, PRC1, TACC3, DLG7) in HeLa-S3 cells; assay: Real-time PCR of PD marker candidate genes after treatment with Aurora A inhibitor (Example 2); assay type: cell-based, human; conditions: 24 hours, FIGS. 6 to 10
Procedure: A predetermined concentration of 6-((4-(2,3-difluorobenzoyl)piperazin-1-yl)methyl)-N-thiazol-2-ylpyridin-2-amine was acted on HeLa-S3 cells; and after 24 hours, the cells were collected, the total RNA was isolated and then converted into cDNA, and this was processed for real-time PCR in the same manner as in Example 1.

[5] = system: HeLa S3 cells; assay: Cell cycle analysis by flow cytometry in asynchronous HeLa S3 cells with Aurora A-selective inhibitor (Example 6); assay type: cell-based, human; conditions: 8 hours and 24 hours, FIGS. 20, 21
Procedure: (§2) First, asynchronously-cultured HeLa S3 cells were planted in an amount of 1×10^6 cells, and incubated overnight at 37° C. in 5% CO2. At 10:00 on the next day, the medium was exchanged with a medium to which 6-((4-(3-chloro-2-fluorobenzoyl)piperazin-1-yl)methyl)-N-thiazol-2-ylpyridin-2-amine had been added to be a final concentration of 0, 30, 100, 300, 1000, 3000, 10000, 30000 nM, and then, after 8 hours and 24 hours, the cells were peeled with trypsin and collected. A half of the cells was analyzed by western blotting; ¼ of the cells were analyzed for cell cycle through flow cytometry; and the last remaining ones were analyzed for phosphorylation of histone H3 (Ser10). The cell samples processed in the same manner were analyzed for expression profiling through TaqMan-PCR.

[6] = system: Aurora B (Thr232) phosphorylation; assay: Western blotting of phospho-Aurora B (Thr232), Aurora B, Survivin, Plk1 in asynchronous HeLa S3 cells with Aurora A-selective inhibitor (Example 6); assay type: cell-based, human; conditions: for ratio of phospho-Aurora B/Aurora B: based on the compound concentration 0 nM of 1
Procedure: as §2

[7] = system: histone H3 (Ser10) phosphorylation; assay: Histone H3 (Ser10) phosphorylation by flow cytometry in HeLa S3 cells (Example 6); assay type: cell-based, human; conditions: FIG. 23
Procedure: as §2

[8] = system: PD marker candidate genes in rat skin; assay: Expression change of PD marker candidate genes in skin, continuous administration to rat (Example 4); assay type: in vivo; conditions: same rat skin as Example 3 (intravenous drip infusion for 48 hours); FIGS. 13 to 16
Procedure: as §1
The same rat skin as that used in Example 3 was checked for the expression change of PD marker candidate genes through real-time PCR. The primers of the candidate genes in the rat are as shown below. For every primer and probe, a rat gene was used as the template. The probe was modified with FAM/TAMRA.

[9] = HeLa S3 cells, 8 hours and 24 hours
[10] = HeLa S3 cells, expression admitted in the background with no compound addition

O=C(c1cccc(C(F)(F)F)c1F)N1CCN(Cc2cncc(Nc3cc[nH]n3)n2)CC1 [6-((4-(2-fluoro-3-(trifluoromethyl)benzoyl)piperazin-1-yl)methyl)-N-1H-pyrazol-3-ylpyrazin-2-amine]
expression of BIRC5 in cancer graft [1]: significantly increased
expression of DLG7 in cancer graft [1]: significantly increased
peak of the expression change (dose) [1]: 1 mpk
expression level of the PD marker candidate genes in cancer graft ([1]; FIGS. 11 and 12): increased

Cc1cc(Nc2cc(N3CCN(C)CC3)nc(Sc3ccc(NC(=O)C4CC4)cc3)n2)n[nH]1 [VX-680]
Aurora B expression [2]: detected on the same level as that in the control
phospho-Aurora B (Thr232) expression [2]: no phospho-Aurora B was detected at all
phospho-histone H3 (Ser28) induction by inhibitor [3]: did not have a phosphorylation band at all

O=C(c1cccc(F)c1F)N1CCN(Cc2cccc(Nc3nccs3)n2)CC1 [6-((4-(2,3-difluorobenzoyl)piperazin-1-yl)methyl)-N-thiazol-2-ylpyridin-2-amine]
expression level of the PD marker candidate genes (BIRC5, KNTC2, PRC1, TACC3, DLG7) [4]: increased dependently on the Aurora A inhibitor concentration
Aurora B expression [2]: expressed Aurora B to a high level even after 10 hours
phospho-Aurora B (Thr232) expression [2]: remarkably increased
phospho-histone H3 (Ser28) induction by inhibitor [3]: concentration-dependent induction

O=C(c1cccc(Cl)c1F)N1CCN(Cc2cccc(Nc3nccs3)n2)CC1 [6-((4-(3-chloro-2-fluorobenzoyl)piperazin-1-yl)methyl)-N-thiazol-2-ylpyridin-2-amine]
concentration from which the proportion of the M-stage began to increase [5]: around 300 nM
concentration up to which the M-stage was kept [5]: around 10 μM
concentration range in which Aurora B inhibition begins (phosphorylation of Aurora B again inhibited) ([6]; HeLa S3 cells): > 30 µM
expression of phospho-Aurora B (Thr232) ([6]; HeLa S3 cells, 0-30000 nM, exposure 8 hours and 24 hours, FIG. 22): increased dependently on the administration concentration
concentration of phosphorylation depression of Aurora B (considered Aurora B inhibition) [6, 9]: ≥ 30 µM
expression level of Aurora B [6, 9]: did not change so much
expression induction window of Plk1 [6, 10]: at most 3.5 times
expression induction window of Survivin [6, 10]: at most 3.5 times
ratio of phospho-Aurora B/Aurora B ([6]; exposure period of 8 hours): at most 16 times
ratio of phospho-Aurora B/Aurora B ([6]; exposure period of 24 hours): up to 10 times
Histone H3 (Ser10) phosphorylation in flow cytometry [7]: could not take a large window

O=C(O)[C@]1(Cc2cccc(Nc3nccs3)n2)CC[C@@H](Oc2cccc(Cl)c2F)CC1 [trans-4-(3-chloro-2-fluorophenoxy)-1-((6-(1,3-thiazol-2-ylamino)pyridin-2-yl)methyl)cyclohexanecarboxylic acid]
expression level of the candidate genes in rat skin [8]: significantly increased

COc1cc2c(Nc3ccc(NC(=O)c4ccccc4)cc3)ncnc2cc1OCCCN1CCOCC1 [ZM477439]
Aurora B expression [2]: detected on the same level as that in the control
phospho-Aurora B (Thr232) expression [2]: no phospho-Aurora B was detected at all
